One assay addresses hNav1.5 (Homo sapiens, UniProt Q14524). The assay can be described thus: cell-based.
For a further assay, the target named is hNav1.3 (Homo sapiens, UniProt Q9NY46). Briefly: cell-based. The settings on record: IonWorks Quattro, read-out: IWQ Use Nav1.3.
The mark [1] stands for this setting: IonWorks Quattro, Use, read-out: IWQ Use Nav1.5.

Molecules are shown by their SMILES. Read-outs that look alike come from different tables or passages of the source. Positions of bridges follow the written chain, without caps; N, C: chain ends. Residues, ends and D or L forms follow the SMILES beside them.

Sequence of hNav1.5 (Q14524 whole entry, looked up): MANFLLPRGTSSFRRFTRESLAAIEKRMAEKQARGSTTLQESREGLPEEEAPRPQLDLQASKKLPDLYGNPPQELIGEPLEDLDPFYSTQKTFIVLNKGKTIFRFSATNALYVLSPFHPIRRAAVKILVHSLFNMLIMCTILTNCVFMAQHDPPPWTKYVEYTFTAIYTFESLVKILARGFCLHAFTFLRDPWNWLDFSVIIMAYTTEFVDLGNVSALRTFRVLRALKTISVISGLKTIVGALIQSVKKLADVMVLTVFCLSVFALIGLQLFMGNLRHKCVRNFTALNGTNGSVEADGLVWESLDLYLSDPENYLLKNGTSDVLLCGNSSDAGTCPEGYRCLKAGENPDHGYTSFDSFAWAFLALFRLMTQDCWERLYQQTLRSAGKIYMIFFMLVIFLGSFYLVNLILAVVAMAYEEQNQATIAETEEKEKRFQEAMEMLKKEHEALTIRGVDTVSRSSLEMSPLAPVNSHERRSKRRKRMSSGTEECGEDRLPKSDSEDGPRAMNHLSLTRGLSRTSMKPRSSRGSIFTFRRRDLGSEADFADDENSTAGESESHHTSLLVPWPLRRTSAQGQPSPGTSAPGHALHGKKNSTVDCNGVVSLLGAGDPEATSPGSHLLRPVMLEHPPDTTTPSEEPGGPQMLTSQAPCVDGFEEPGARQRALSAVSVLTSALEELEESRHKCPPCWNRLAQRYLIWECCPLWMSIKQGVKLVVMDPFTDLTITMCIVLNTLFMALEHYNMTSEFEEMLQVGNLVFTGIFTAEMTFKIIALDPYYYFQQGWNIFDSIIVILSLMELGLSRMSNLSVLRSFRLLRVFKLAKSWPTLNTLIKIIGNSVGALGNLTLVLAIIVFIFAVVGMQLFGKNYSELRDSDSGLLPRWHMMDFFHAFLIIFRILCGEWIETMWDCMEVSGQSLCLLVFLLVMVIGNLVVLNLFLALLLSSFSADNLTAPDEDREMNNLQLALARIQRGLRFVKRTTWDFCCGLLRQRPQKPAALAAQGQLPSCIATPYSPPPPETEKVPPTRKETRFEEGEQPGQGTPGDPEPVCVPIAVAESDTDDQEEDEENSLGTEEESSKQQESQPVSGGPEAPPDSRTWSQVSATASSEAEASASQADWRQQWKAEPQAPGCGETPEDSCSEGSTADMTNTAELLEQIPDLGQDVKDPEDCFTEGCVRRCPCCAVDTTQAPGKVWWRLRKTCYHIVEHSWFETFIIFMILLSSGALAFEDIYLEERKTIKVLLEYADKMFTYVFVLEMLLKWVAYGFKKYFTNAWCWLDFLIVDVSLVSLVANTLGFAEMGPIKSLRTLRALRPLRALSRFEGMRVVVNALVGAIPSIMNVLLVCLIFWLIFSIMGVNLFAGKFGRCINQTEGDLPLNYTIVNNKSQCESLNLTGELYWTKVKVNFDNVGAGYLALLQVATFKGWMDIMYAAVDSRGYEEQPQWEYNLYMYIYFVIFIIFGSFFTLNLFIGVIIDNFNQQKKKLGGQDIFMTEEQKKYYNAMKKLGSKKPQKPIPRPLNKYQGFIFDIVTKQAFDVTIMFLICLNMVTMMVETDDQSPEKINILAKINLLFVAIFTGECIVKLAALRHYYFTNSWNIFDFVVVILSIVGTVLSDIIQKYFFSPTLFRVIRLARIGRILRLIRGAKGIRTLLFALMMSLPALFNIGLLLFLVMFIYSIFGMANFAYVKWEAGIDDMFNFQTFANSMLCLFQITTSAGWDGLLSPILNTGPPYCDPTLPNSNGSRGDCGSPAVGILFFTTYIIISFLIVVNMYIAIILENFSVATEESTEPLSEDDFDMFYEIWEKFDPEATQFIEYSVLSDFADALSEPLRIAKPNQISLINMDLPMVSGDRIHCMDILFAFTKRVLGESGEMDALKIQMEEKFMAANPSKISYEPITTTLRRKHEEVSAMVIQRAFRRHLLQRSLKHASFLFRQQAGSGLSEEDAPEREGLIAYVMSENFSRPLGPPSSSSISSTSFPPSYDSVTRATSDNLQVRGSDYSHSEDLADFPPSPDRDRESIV
Sequence of hNav1.3 (Q9NY46 whole entry, looked up): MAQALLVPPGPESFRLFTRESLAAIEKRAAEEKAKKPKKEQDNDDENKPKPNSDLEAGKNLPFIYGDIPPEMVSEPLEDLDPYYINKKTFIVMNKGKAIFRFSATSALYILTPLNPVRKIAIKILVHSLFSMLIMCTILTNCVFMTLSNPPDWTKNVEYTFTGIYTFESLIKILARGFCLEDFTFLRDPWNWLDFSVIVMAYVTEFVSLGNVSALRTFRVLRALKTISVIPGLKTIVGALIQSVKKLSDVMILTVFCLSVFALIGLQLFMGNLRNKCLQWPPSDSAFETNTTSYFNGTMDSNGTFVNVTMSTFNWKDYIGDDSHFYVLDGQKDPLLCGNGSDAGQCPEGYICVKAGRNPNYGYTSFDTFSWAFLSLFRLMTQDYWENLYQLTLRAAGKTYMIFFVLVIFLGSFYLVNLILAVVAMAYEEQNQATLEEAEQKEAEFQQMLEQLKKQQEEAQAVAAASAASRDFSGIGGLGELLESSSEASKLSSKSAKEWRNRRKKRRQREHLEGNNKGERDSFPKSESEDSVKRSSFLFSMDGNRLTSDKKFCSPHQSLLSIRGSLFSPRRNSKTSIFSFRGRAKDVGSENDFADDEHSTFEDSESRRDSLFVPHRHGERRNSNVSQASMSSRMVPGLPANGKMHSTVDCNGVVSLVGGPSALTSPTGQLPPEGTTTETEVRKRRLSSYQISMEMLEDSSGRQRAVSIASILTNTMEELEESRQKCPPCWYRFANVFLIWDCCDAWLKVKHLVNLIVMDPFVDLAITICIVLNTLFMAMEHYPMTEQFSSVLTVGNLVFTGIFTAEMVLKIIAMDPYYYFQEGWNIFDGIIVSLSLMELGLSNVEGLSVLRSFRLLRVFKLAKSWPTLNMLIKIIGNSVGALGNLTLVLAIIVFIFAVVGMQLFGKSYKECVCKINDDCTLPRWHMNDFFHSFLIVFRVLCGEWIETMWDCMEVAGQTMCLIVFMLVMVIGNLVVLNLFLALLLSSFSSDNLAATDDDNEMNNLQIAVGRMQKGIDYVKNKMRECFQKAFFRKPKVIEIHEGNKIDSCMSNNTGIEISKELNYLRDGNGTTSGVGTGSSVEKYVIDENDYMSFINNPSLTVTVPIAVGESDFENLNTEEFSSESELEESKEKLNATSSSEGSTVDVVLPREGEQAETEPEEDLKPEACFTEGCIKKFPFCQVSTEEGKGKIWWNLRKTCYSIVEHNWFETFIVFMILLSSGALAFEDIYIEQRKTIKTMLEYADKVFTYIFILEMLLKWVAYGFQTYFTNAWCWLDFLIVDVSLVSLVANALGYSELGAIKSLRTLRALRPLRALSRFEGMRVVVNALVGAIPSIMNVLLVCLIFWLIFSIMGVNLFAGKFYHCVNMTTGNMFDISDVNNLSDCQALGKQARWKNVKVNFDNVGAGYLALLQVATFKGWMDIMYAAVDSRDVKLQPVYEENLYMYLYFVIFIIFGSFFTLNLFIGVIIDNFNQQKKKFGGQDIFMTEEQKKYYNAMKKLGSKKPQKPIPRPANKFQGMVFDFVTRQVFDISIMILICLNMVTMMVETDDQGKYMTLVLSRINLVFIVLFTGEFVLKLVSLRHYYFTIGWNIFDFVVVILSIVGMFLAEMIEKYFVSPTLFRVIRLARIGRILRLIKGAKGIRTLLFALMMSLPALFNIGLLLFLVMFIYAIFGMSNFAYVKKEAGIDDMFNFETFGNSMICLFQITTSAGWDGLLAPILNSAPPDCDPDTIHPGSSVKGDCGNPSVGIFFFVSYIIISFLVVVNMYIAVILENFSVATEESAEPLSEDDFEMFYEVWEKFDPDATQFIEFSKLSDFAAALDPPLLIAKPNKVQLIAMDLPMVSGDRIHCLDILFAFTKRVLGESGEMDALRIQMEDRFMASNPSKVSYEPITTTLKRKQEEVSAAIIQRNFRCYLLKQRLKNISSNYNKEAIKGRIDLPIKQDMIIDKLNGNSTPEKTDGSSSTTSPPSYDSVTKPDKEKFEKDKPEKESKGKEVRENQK

With `CC[C@H](C)[C@@H]1NC(=O)[C@@H]2CSSC[C@@H]3NC(=O)[C@H](C(C)C)NC(=O)[C@H](CC(C)C)NC(=O)[C@H](CC(N)=O)NC(=O)[C@@H]4CCCN4C(=O)[C@H](CCCNC(=N)N)NC(=O)[C@H](CSSC[C@H](NC(=O)[C@@H](N)CC(=O)O)C(=O)N[C@@H](CC(C)C)C(=O)NCC(=O)N[C@@H](Cc4ccccc4)C(=O)N[C@@H](CCSC)C(=O)N[C@@H](CCCNC(=N)N)C(=O)N[C@@H](CCCCN)C(=O)N2)NC(=O)[C@H](CSSC[C@@H](C(=O)N[C@@H](CCCCN)C(=O)N[C@@H](Cc2ccc(O)cc2)C(=O)N[C@H](C(=O)N[C@@H](Cc2ccccc2)C(N)=O)C(C)C)NC(=O)[C@H](Cc2c[nH]c4ccccc24)NC(=O)[C@H](CCCCN)NC(=O)[C@H](Cc2cnc[nH]2)NC(=O)[C@H]([C@@H](C)O)NC(=O)[C@H](CCCNC(=N)N)NC(=O)[C@H](CO)NC3=O)NC(=O)[C@H](CCCCN)NC(=O)[C@H](CC(=O)O)NC(=O)[C@H](CC(N)=O)NC(=O)[C@H](C)NC(=O)[C@@H]2CCCN2C1=O` [compound 4] (H-DCLGFMRKCIPANDKCCRPNLVCSRTHKWCKYVF-NH2; disulfide 2-17, 9-23, 16-30), the IC50 at hNav1.5 (IWQ Use Nav1.5 (μM)) was 8.05 µM; at hNav1.3 (Use), 0.13 µM.

On to `CC[C@H](C)[C@@H]1NC(=O)[C@@H]2CSSC[C@@H]3NC(=O)[C@H](C(C)C)NC(=O)[C@H](CC(C)C)NC(=O)[C@H](C)NC(=O)[C@@H]4CCCN4C(=O)[C@H](CCCNC(=N)N)NC(=O)[C@H](CSSC[C@H](NC(=O)[C@@H](N)CC(=O)O)C(=O)N[C@@H](CC(C)C)C(=O)NCC(=O)N[C@@H](Cc4ccccc4)C(=O)N[C@@H](CCSC)C(=O)N[C@@H](CCCNC(=N)N)C(=O)N[C@@H](CCCCN)C(=O)N2)NC(=O)[C@H](CSSC[C@@H](C(=O)N[C@@H](CCCCN)C(=O)N[C@@H](Cc2ccc(O)cc2)C(=O)N[C@H](C(=O)N[C@@H](Cc2ccccc2)C(N)=O)C(C)C)NC(=O)[C@H](Cc2c[nH]c4ccccc24)NC(=O)[C@H](CCCCN)NC(=O)[C@H](Cc2cnc[nH]2)NC(=O)[C@H]([C@@H](C)O)NC(=O)[C@H](CCCNC(=N)N)NC(=O)[C@H](CO)NC3=O)NC(=O)[C@H](CCCCN)NC(=O)[C@H](CC(=O)O)NC(=O)[C@H](CC(N)=O)NC(=O)[C@H](CC(=O)O)NC(=O)[C@@H]2CCCN2C1=O` [compound 7] (H-DCLGFMRKCIPDNDKCCRPALVCSRTHKWCKYVF-NH2; disulfide 2-17, 9-23, 16-30), for which the IC50 amounted to 19.5 µM on hNav1.5 (setting [1]) and 0.41 µM on hNav1.3 (Use).

As to `CC[C@H](C)[C@@H]1NC(=O)[C@@H]2CSSC[C@@H]3NC(=O)[C@H](C)NC(=O)[C@H](CC(C)C)NC(=O)[C@H](CC(N)=O)NC(=O)[C@@H]4CCCN4C(=O)[C@H](CCCNC(=N)N)NC(=O)[C@H](CSSC[C@H](NC(=O)[C@@H](N)CC(=O)O)C(=O)N[C@@H](CC(C)C)C(=O)NCC(=O)N[C@@H](Cc4ccccc4)C(=O)N[C@@H](CCSC)C(=O)N[C@@H](CCCNC(=N)N)C(=O)N[C@@H](CCCCN)C(=O)N2)NC(=O)[C@H](CSSC[C@@H](C(=O)N[C@@H](CCCCN)C(=O)N[C@@H](Cc2ccc(O)cc2)C(=O)N[C@H](C(=O)N[C@@H](Cc2ccccc2)C(N)=O)C(C)C)NC(=O)[C@H](Cc2c[nH]c4ccccc24)NC(=O)[C@H](CCCCN)NC(=O)[C@H](Cc2cnc[nH]2)NC(=O)[C@H]([C@@H](C)O)NC(=O)[C@H](CCCNC(=N)N)NC(=O)[C@H](CO)NC3=O)NC(=O)[C@H](CCCCN)NC(=O)[C@H](CC(=O)O)NC(=O)[C@H](CC(N)=O)NC(=O)[C@H](CC(=O)O)NC(=O)[C@@H]2CCCN2C1=O` [compound 8] (H-DCLGFMRKCIPDNDKCCRPNLACSRTHKWCKYVF-NH2; disulfide 2-17, 9-23, 16-30), the IC50 came to 20.4 µM on hNav1.5 (setting [1]) and 0.32 µM at hNav1.3 (Use).

In the case of `CC[C@H](C)[C@@H]1NC(=O)[C@@H]2CSSC[C@@H]3NC(=O)[C@H](C(C)C)NC(=O)[C@H](CC(C)C)NC(=O)[C@H](CC(N)=O)NC(=O)[C@@H]4CCCN4C(=O)[C@H](CCCNC(=N)N)NC(=O)[C@H](CSSC[C@H](NC(=O)[C@@H](N)CC(=O)O)C(=O)N[C@@H](CC(C)C)C(=O)NCC(=O)N[C@@H](Cc4ccccc4)C(=O)N[C@@H](CCSC)C(=O)N[C@@H](CCCNC(=N)N)C(=O)N[C@@H](CCCCN)C(=O)N2)NC(=O)[C@H](CSSC[C@@H](C(=O)N[C@@H](CCCCN)C(=O)N[C@@H](C)C(=O)N[C@H](C(=O)N[C@@H](Cc2ccccc2)C(N)=O)C(C)C)NC(=O)[C@H](Cc2c[nH]c4ccccc24)NC(=O)[C@H](CCCCN)NC(=O)[C@H](Cc2cnc[nH]2)NC(=O)[C@H]([C@@H](C)O)NC(=O)[C@H](CCCNC(=N)N)NC(=O)[C@H](CO)NC3=O)NC(=O)[C@H](CCCCN)NC(=O)[C@H](CC(=O)O)NC(=O)[C@H](CC(N)=O)NC(=O)[C@H](CC(=O)O)NC(=O)[C@@H]2CCCN2C1=O` [compound 14] (H-DCLGFMRKCIPDNDKCCRPNLVCSRTHKWCKAVF-NH2; disulfide 2-17, 9-23, 16-30), the IC50 was determined as 20.6 µM at hNav1.5 (Table 25, IonWorks Quattro, use, […], read-out: IWQ Use Nav1.5) and 0.77 µM at hNav1.3 (Table 25, use, […]).

As to `CC[C@H](C)[C@@H]1NC(=O)[C@@H]2CSSC[C@@H]3NC(=O)[C@H](C(C)C)NC(=O)[C@H](CC(C)C)NC(=O)[C@H](CC(N)=O)NC(=O)[C@@H]4CCCN4C(=O)[C@H](CCCNC(=N)N)NC(=O)[C@H](CSSC[C@H](NC(=O)[C@@H](N)CC(=O)O)C(=O)N[C@@H](CC(C)C)C(=O)NCC(=O)N[C@@H](Cc4ccccc4)C(=O)N[C@@H](CCSC)C(=O)N[C@@H](CCCNC(=N)N)C(=O)N[C@@H](CCCCN)C(=O)N2)NC(=O)[C@H](CSSC[C@@H](C(=O)N[C@@H](CCCCN)C(=O)N[C@@H](Cc2ccc(O)cc2)C(=O)N[C@H](C(=O)N[C@@H](Cc2ccccc2)C(N)=O)C(C)C)NC(=O)[C@H](Cc2c[nH]c4ccccc24)NC(=O)[C@H](CCCCN)NC(=O)[C@H](Cc2cnc[nH]2)NC(=O)[C@H]([C@@H](C)O)NC(=O)[C@H](CCCNC(=N)N)NC(=O)[C@H](CO)NC3=O)NC(=O)[C@H](CCCCN)NC(=O)[C@H](CC(=O)O)NC(=O)[C@H](CC(N)=O)NC(=O)[C@H](CCCCN)NC(=O)[C@@H]2CCCN2C1=O` [compound 42] (H-DCLGFMRKCIPKNDKCCRPNLVCSRTHKWCKYVF-NH2; disulfide 2-17, 9-23, 16-30), the IC50 against hNav1.5 (IWQ Use Nav1.5 (μM)) was 6.51 µM; on hNav1.3 (Use) it was 0.09 µM.

For `CSCC[C@@H]1NC(=O)[C@H](Cc2ccccc2)NC(=O)CNC(=O)[C@H](CC(C)C)NC(=O)[C@@H](NC(=O)[C@@H](N)CC(=O)O)CSSC[C@@H]2NC(=O)[C@@H]3CSSC[C@@H](C(=O)N[C@@H](CCCCN)C(=O)N[C@@H](Cc4ccc(O)cc4)C(=O)N[C@H](C(=O)N[C@@H](Cc4ccccc4)C(N)=O)C(C)C)NC(=O)[C@H](Cc4c[nH]c5ccccc45)NC(=O)[C@H](CCCCN)NC(=O)[C@H](Cc4cnc[nH]4)NC(=O)[C@H]([C@@H](C)O)NC(=O)[C@H](CCCNC(=N)N)NC(=O)[C@H](CO)NC(=O)[C@H](CSSC[C@H](NC(=O)[C@H](CCCCN)NC(=O)[C@H](CCCNC(=N)N)NC1=O)C(=O)N[C@@H](C)C(=O)N1CCC[C@H]1C(=O)N[C@@H](CC(=O)O)C(=O)N[C@@H](CC(N)=O)C(=O)N[C@@H](CC(=O)O)C(=O)N[C@@H](CCCCN)C(=O)N3)NC(=O)[C@H](C(C)C)NC(=O)[C@H](CC(C)C)NC(=O)[C@H](CC(N)=O)NC(=O)[C@@H]1CCCN1C(=O)[C@H](CCCNC(=N)N)NC2=O` [compound 45] (H-DCLGFMRKCAPDNDKCCRPNLVCSRTHKWCKYVF-NH2; disulfide 2-17, 9-23, 16-30), the IC50 on hNav1.5 (setting [1]) was found to be 16.5 µM; on hNav1.3 (Use) it was 0.19 µM.

For the compound `CC[C@H](C)[C@@H]1NC(=O)[C@@H]2CSSC[C@@H]3NC(=O)[C@H](C(C)C)NC(=O)[C@H](CC(C)C)NC(=O)[C@H](CC(N)=O)NC(=O)[C@@H]4CCCN4C(=O)[C@H](CCCNC(=N)N)NC(=O)[C@H](CSSC[C@H](NC(=O)[C@@H](N)CC(=O)O)C(=O)N[C@@H](CC(C)C)C(=O)NCC(=O)N[C@@H](Cc4ccccc4)C(=O)N[C@@H](CCSC)C(=O)N[C@@H](CCCNC(=N)N)C(=O)N[C@@H](CCCCN)C(=O)N2)NC(=O)[C@H](CSSC[C@@H](C(=O)N[C@@H](CCCCN)C(=O)N[C@@H](Cc2ccc(O)cc2)C(=O)N[C@H](C(=O)N[C@@H](Cc2ccccc2)C(N)=O)C(C)C)NC(=O)[C@H](Cc2c[nH]c4ccccc24)NC(=O)[C@H](CCCCN)NC(=O)[C@H](Cc2cnc[nH]2)NC(=O)[C@H]([C@@H](C)O)NC(=O)[C@H](CCCNC(=N)N)NC(=O)[C@H](CO)NC3=O)NC(=O)[C@H](CCCCN)NC(=O)[C@H](CC(=O)O)NC(=O)[C@H](CCCCN)NC(=O)[C@H](CC(=O)O)NC(=O)[C@@H]2CCCN2C1=O` [compound 48] (H-DCLGFMRKCIPDKDKCCRPNLVCSRTHKWCKYVF-NH2; disulfide 2-17, 9-23, 16-30), the IC50 at hNav1.5 (setting [1]) is 9.72 µM; at hNav1.3 (Use), 0.13 µM.

Turning to `CC[C@H](C)[C@@H]1NC(=O)[C@@H]2CSSC[C@@H]3NC(=O)[C@H](C(C)C)NC(=O)[C@H](CC(C)C)NC(=O)[C@H](CC(N)=O)NC(=O)[C@H](CCCCN)NC(=O)[C@H](CCCNC(=N)N)NC(=O)[C@H](CSSC[C@H](NC(=O)[C@@H](N)CC(=O)O)C(=O)N[C@@H](CC(C)C)C(=O)NCC(=O)N[C@@H](Cc4ccccc4)C(=O)N[C@@H](CCSC)C(=O)N[C@@H](CCCNC(=N)N)C(=O)N[C@@H](CCCCN)C(=O)N2)NC(=O)[C@H](CSSC[C@@H](C(=O)N[C@@H](CCCCN)C(=O)N[C@@H](Cc2ccc(O)cc2)C(=O)N[C@H](C(=O)N[C@@H](Cc2ccccc2)C(N)=O)C(C)C)NC(=O)[C@H](Cc2c[nH]c4ccccc24)NC(=O)[C@H](CCCCN)NC(=O)[C@H](Cc2cnc[nH]2)NC(=O)[C@H]([C@@H](C)O)NC(=O)[C@H](CCCNC(=N)N)NC(=O)[C@H](CO)NC3=O)NC(=O)[C@H](CCCCN)NC(=O)[C@H](CC(=O)O)NC(=O)[C@H](CC(N)=O)NC(=O)[C@H](CC(=O)O)NC(=O)[C@@H]2CCCN2C1=O` [compound 50] (H-DCLGFMRKCIPDNDKCCRKNLVCSRTHKWCKYVF-NH2; disulfide 2-17, 9-23, 16-30), the IC50 at hNav1.5 (setting [1]) came to 10.6 µM; on hNav1.3 (Use), 0.18 µM.

These data come from patent US9340590B2 (priority 2011, dated 2016).
